# Measurements published in PMC5678437, “A new antagonist for CCR4 attenuates allergic lung inflammation in a mouse model of asthma” (Scientific Reports, 2017).
# Where two headings read alike, the source gives them in different places.
# How the values were obtained:
# [1] = test system: OVA-induced asthmatic mice; assay: Airway hyperresponsiveness to aerosolized methacholine in OVA-induced asthmatic mice; format: in vivo, BALB/c mice; conditions: days 24-26, 24 h after final OVA challenge
# Protocol: (§1) Male BALB/c 6 week old mice were purchased from the Experimental Animal Center of Zhejiang University. All mice were raised in a specific pathogen-free animal facility. All animal experiments were carried out according to the guidelines for the care and use of laboratory animals and were approved by the ethics committee of Zhejiang University and Peking University, China.
# (§2) Mice were sensitized and challenged with chicken egg OVA (sigma-Aldrich, St Louis, MO, USA) as described in details previously. Briefly, after sensitized by intraperitoneal injection of 100 μl (80 μg) OVA in 100 μl alum (Pierce, Rockford, IL, USA) on days 0 and 14, mice were exposure to 1% OVA aerosols for 40 min on days 24–26. Control mice were injected intraperitoneally with saline and exposed to saline aerosols.
# Compound 8a was dissolved in saline with DMSO (0.5%). Half an hour before each OVA challenge, the groups of mice treated with various doses of compound 8a (0.2, 1, 5 mg) inhaled aerosolized compound 8a for 45 min on days 24–26. Compound 8a aerosols were produced by using a Plexiglas chamber and ultrasonic nebulizer. While the budesonide (BUD) group were administered with 5 mg budesonide, and the vehicle group were treated with compound-dissolved vehicle. The Saline was treated as the control.
# Twenty-four hours after the last challenge, mice were anesthetized and tracheotomized with a cannula, then ventilated at a fixed breathing rate. Once being stabilized, mice were challenged via the airways with saline or increasing concentrations of Mch (1, 2, 4, 8, 16 mg/ml) by nebulization. Airway resistance was measured by FinePointe Series RC Sites (Buxco Research System). Changes in airway resistance were calculated for each Mch concentration.
# [2] = test system: OVA-induced asthmatic mice; assay: Lung histology (H&E) inflammation score in OVA-induced asthmatic mice; format: in vivo, BALB/c mice; conditions: 5 mg inhaled aerosol; vs OVA mice treated with vehicle
# Protocol: as §1, §2
# (§3) Compound 8a was dissolved in saline with DMSO (0.5%). Half an hour before each OVA challenge, the groups of mice treated with various doses of compound 8a (0.2, 1, 5 mg) inhaled aerosolized compound 8a for 45 min on days 24–26. Compound 8a aerosols were produced by using a Plexiglas chamber and ultrasonic nebulizer. […]
# (§4) After sacrificed, the lungs were fixed in formalin overnight. […] Inflammation was scored according to published guidelines. And PAS-stained goblet cells in airway epithelium were quantified as described previously.
# [3] = test system: OVA-induced asthmatic mice; assay: Airway mucus production (PAS staining) in OVA-induced asthmatic mice; format: in vivo, BALB/c mice; conditions: compound 8a 0.2, 1, 5 mg; budesonide 5 mg; vs vehicle treated group
# Protocol: as §1, §2, §3, §4
# CCR6 = biological target: T1, CCR6 (Homo sapiens, UniProt P51684); assay: Chemotaxis assay for receptor specificity, HEK293-CCR6; format: cell-based; conditions: compound as chemoattractant in lower chamber, 0.2, 1, 5, 25 μM
# T1 construct: expressed in transfected cells; host or cells: HEK293, pcDI-CCR6 plasmid made in the authors' laboratory
# T1 sequence (P51684 1-374): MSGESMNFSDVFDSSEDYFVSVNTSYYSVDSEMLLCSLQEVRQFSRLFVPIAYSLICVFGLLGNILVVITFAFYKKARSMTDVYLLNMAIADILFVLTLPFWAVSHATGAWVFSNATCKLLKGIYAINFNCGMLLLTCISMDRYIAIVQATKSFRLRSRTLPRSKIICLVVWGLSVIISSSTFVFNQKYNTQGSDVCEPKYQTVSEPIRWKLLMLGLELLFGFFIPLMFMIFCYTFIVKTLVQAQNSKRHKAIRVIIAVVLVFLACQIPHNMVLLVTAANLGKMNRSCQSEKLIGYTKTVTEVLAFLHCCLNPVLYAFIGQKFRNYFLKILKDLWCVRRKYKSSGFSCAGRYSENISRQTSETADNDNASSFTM
# Protocol: HEK293 cells were transfected with different chemokine receptors. Compound 8a with DMSO was diluted to 0.2 mM, 1 mM, 5 mM and 25 mM, and then we used RPMI 1640 medium containing 0.1% BSA for dilution. The final concentration is: 0.2 μM, 1 μM, 5 μM and 25 μM. DMSO was also diluted 1000-fold with 0.1% BSA RPMI 1640 medium. Chemokines was also diluted to an appropriate concentration. The dilutions of Compound 8a, 1‰ DMSO, the corresponding chemokines of different receptors and 0.1% BSA RPMI 1640 medium were placed in the lower chambers (27.5 μl/well). The transfected HEK293 cells were resuspended in the same medium at a density of 1 × 10^6 cells/ml and added to the upper chambers (55 μl/well).
# CCR4 = biological target: T2, CCR4 (Homo sapiens, UniProt P51679); assay: Radio ligand competition binding assay on CCR4 cell membrane extract; conditions: HEK293 CCR4 cell membrane extract, 4 °C, 24 h
# T2 construct: expressed in transfected cells; cell membrane extract
# T2 sequence (P51679 1-360): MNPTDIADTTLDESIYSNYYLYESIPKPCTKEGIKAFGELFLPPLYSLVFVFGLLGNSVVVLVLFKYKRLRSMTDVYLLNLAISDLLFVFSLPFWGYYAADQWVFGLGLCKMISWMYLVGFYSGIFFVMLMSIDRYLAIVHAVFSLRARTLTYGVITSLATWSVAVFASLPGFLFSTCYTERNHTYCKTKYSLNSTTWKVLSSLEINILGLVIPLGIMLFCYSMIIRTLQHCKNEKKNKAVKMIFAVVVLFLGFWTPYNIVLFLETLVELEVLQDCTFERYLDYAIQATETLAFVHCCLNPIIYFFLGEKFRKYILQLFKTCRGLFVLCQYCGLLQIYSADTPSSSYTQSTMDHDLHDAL
# Protocol: A HEK293 cell line stably expressing CCR4-enhanced green fluorescent protein was established. CCL22, CCL17 and C27 were labeled with [^125I]. For competition binding assays, equivalent quantities of cell membrane extract and [^125I]-CCL22, [^125I]-CCL17 and [^125I]-C27 were incubated with varying quantities of unlabeled compound 8a, compound 6b and compound 22. All reactions were incubated at 4 °C for 24 h. After the binding step, 25% polyethylene glycol (6000–8000) and 0.5% human g-globulin were added, and the mixture was incubated at room temperature for 15 min. Binding complexes were obtained by centrifuging the mixture at 3500 rpm for 20 min at 4 °C, and radioactivity was evaluated. Results were corrected for “blank” background radiation, defined as the radioactivity precipitated by polyethylene glycol–g-globulin from the same amount of radioactive ligand in binding buffer in the absence of cells.
compound,measurement,setting,value
"O=C(C1CCCCN1)N1CCN(c2nc(Cl)cc(NCc3ccc(Cl)cc3Cl)n2)CC1 (stereo not drawn) [compound 8a, {4-[4-Chloro-6-(2,4-dichloro-benzylamino)-pyrimidin-2-yl]-piperazin-1-yl}-piperidin-2-yl-methanone]",AHR to methacholine compared with asthmatic mice treated with vehicle,[1]; 0.2 mg inhaled aerosol,significantly lower
same,AHR to methacholine compared with asthmatic mice treated with vehicle,[1]; 1 mg inhaled aerosol,significantly lower
same,AHR to methacholine compared with asthmatic mice treated with vehicle,[1]; 5 mg inhaled aerosol,significantly lower
same,peribronchial and perivascular inflammation (H&E histology),[2],comparable inhibitory effect
same,airway mucus production (PAS-stained cells),[3],no difference
same,chemotaxis effect of the compound on HEK293-CCR6,CCR6,didn’t exert chemotaxis effects
same,IC50,"CCR4; [125I]-C27, read-out: IC50, competitive binding with C27 to CCR4",62 nM
same,IC50,"CCR4; [125I]-CCL17, read-out: IC50, competitive binding with CCL17 to CCR4",151 nM
same,IC50,"CCR4; [125I]-CCL22, read-out: IC50, competitive binding with CCL22 to CCR4",272 nM
